In PubChem BioAssay AID1259407 (Chemical Carcinogenesis Research Information System (CCRIS), 2018):
The source made the active and inactive calls. The rule behind the calls is not given here.

System: CCRIS mutagenicity, Ames/micronucleus/aberration tests
Test: CCRIS mutagenicity studies
Conditions: Test System: AMES SALMONELLA TYPHIMURIUM
[1] = Strain/Indicator: TA100, Metabolic Activation: NONE, Method: PREINCUBATION

Q: What does the source list for `O=[N+]([O-])c1ccc2c(c1)CCc1c-2ccc2c1CCCC2`?
A: mutagenic call (Strain/Indicator: TA98(1,8-DNP6), Metabolic Activation: NONE): active; positive; mutagenic call (Strain/Indicator: TA98(1,8-DNP6), Metabolic Activation: RAT, LIVER, S-9, AROCLOR 1254): active; positive; mutagenic call (Strain/Indicator: TA98(NR), Metabolic Activation: NONE): active; positive; mutagenic call (Strain/Indicator: TA98(NR), Metabolic Activation: RAT, LIVER, S-9, AROCLOR 1254): active; positive; mutagenic call (Strain/Indicator: TA98, Metabolic Activation: NONE): active; positive; mutagenic call (Strain/Indicator: TA98, Metabolic Activation: RAT, LIVER, S-9, AROCLOR 1254): active; positive; mutagenic call (Strain/Indicator: TA100(NR), Metabolic Activation: NONE): inactive; negative; mutagenic call (Strain/Indicator: TA100(NR), Metabolic Activation: RAT, LIVER, S-9, AROCLOR 1254): active; positive; mutagenic call (Strain/Indicator: TA100, Metabolic Activation: NONE): active; positive; mutagenic call (Strain/Indicator: TA100, Metabolic Activation: RAT, LIVER, S-9, AROCLOR 1254): active; positive; mutagenic call (Strain/Indicator: TA104, Metabolic Activation: NONE): active; positive; mutagenic call (Strain/Indicator: TA104, Metabolic Activation: RAT, LIVER, S-9, AROCLOR 1254): active; positive

Q: With `Nc1ccccc1SCCSc1ccccc1N` as the compound, how does the mutagenic call (Strain/Indicator: TA98, Metabolic Activation: RAT, LIVER, S-9, AROCLOR 1254, Method: STANDARD PLATE) read?
A: inactive; negative

Q: What about the mutagenic call (Strain/Indicator: TA100, Metabolic Activation: RAT, LIVER, S-9, AROCLOR 1254, Method: STANDARD PLATE) of the same compound?
A: active; positive

Q: Which results are given for `COP(=O)(OC)C(OC(=O)CCl)C(Cl)(Cl)Cl` (stereo unspecified)?
A: mutagenic call (Strain/Indicator: TA98, Metabolic Activation: NONE, Method: STANDARD PLATE): inactive; negative; mutagenic call (Strain/Indicator: TA98, Metabolic Activation: RAT, LIVER, S-9, AROCLOR, Method: STANDARD PLATE): inactive; negative; mutagenic call (Strain/Indicator: TA100, Metabolic Activation: NONE, Method: STANDARD PLATE): inactive; negative; mutagenic call (Strain/Indicator: TA100, Metabolic Activation: RAT, LIVER, S-9, AROCLOR, Method: STANDARD PLATE): inactive; negative; mutagenic call (Strain/Indicator: TA1535, Metabolic Activation: NONE, Method: STANDARD PLATE): inactive; negative; mutagenic call (Strain/Indicator: TA1535, Metabolic Activation: RAT, LIVER, S-9, AROCLOR, Method: STANDARD PLATE): inactive; negative; mutagenic call (Strain/Indicator: TA1537, Metabolic Activation: NONE, Method: STANDARD PLATE): inactive; negative; mutagenic call (Strain/Indicator: TA1537, Metabolic Activation: RAT, LIVER, S-9, AROCLOR, Method: STANDARD PLATE): inactive; negative

Q: `O=C(O)Cc1c[nH]c2ccc(O)cc12` was tested. Which mutagenic call [1] did it give?
A: inactive; negative

Q: Which results are given for `O=C(O)c1ccc(/C=N/n2nnc3c([nH]c4ccccc43)c2=O)cc1`?
A: mutagenic call (Strain/Indicator: TA97, Metabolic Activation: NONE, Method: PREINCUBATION): active; positive; mutagenic call (Strain/Indicator: TA97, Metabolic Activation: RAT, LIVER, S-9, AROCLOR 1254 (10%), Method: PREINCUBATION): active; positive; mutagenic call (Strain/Indicator: TA98, Metabolic Activation: NONE, Method: PREINCUBATION): active; positive; mutagenic call (Strain/Indicator: TA98, Metabolic Activation: RAT, LIVER, S-9, AROCLOR 1254 (10%), Method: PREINCUBATION): active; positive; mutagenic call [1]: active; positive; mutagenic call (Strain/Indicator: TA100, Metabolic Activation: RAT, LIVER, S-9, AROCLOR 1254 (10%), Method: PREINCUBATION): active; positive; mutagenic call (Strain/Indicator: TA102, Metabolic Activation: NONE, Method: PREINCUBATION): inactive; negative; mutagenic call (Strain/Indicator: TA102, Metabolic Activation: RAT, LIVER, S-9, AROCLOR 1254 (10%), Method: PREINCUBATION): active; positive
